# Reference: patent US11578343B2, “CAS9 proteins including ligand-dependent inteins” (President and Fellows of Harvard College, priority 2014, dated 2023)
# Experiments:
# Format in all cases: cell-based, human
# CLTA Off 1 = test: High-throughput DNA sequencing of genome modifications; conditions: 500 ng Cas9 plasmid; for Mod. Freq (indels/total sequences), CLTA Off 1: Table 4
# Experimental: (§1) We assayed these Cas9:sgRNA combinations in human cells for their ability to modify the three on-target loci as well as 11 known off-target genomic sites (Table 3)^4,5,10,13. Cells were treated with or without 1 μM 4-HT during transfection, and after 12 h the media was replaced with fresh media lacking 4-HT. […] Genomic DNA was isolated 60 h post-transfection and analyzed by high-throughput DNA sequencing
# (§2) High-throughput DNA sequencing of genome modifications. HEK293-GFP stable cells were transfected with plasmids expressing Cas9 (500 ng) and sgRNA (125 ng) as described above. […] 4-HT (1 μM final), where appropriate, was added during transfection. 12 h after transfection, the media was replaced with full serum media without 4-HT. Genomic DNA was isolated and pooled from three biological replicates 60 h after transfection using a previously reported^11 protocol with a DNAdvance Kit (Agencourt). 150 ng or 200 ng of genomic DNA was used as a template to amplify by PCR the on-target and off-target genomic sites with flanking HTS primer pairs described previously^11. PCR products were purified using RapidTips (Diffinity Genomics) and quantified using the PicoGreen dsDNA Assay Kit (Invitrogen). Purified DNA was PCR amplified with primers containing sequencing adaptors, purified with the MinElute PCR Purification Kit (Qiagen) and AMPure XP PCR Purification (Agencourt). Samples were sequenced on a MiSeq high-throughput DNA sequencer (Illumina), and sequencing data was analyzed as described previously^4.
# (§3) Sensitivity limit of off-target cleavage assays. We used paired end sequencing to identify indels caused by genomic on- and off-target cleavage. […] A 1 ng sample of human gDNA represents only ˜330 unique genomes, and thus only ˜330 unique copies of each genomic site are present. PCR amplification for each genomic target was performed on a total of 150 ng or 200 ng of input gDNA, which provides amplicons derived from at most 50,000 or 65,000 unique gDNA copies, respectively. Therefore, the high-throughput sequencing assay cannot detect rare genome modification events that occur at a frequency of less than approximately 1 in 50,000 (0.002%). When comparing between two conditions, such as wt Cas9 vs. intein-Cas9, this threshold becomes approximately 10 in 50,000 (0.02%) when using the Fisher exact test and a conservative multiple comparison correction (Bonferroni with 14 samples). See also Minoche, A. E., Dohm, J. C., & Himmelbauer, H. Evaluation of genomic high-throughput sequencing data generated on Illumina HiSeq and Genome Analyzer systems. Genome Biology 12, R112 (2011).
# CLTA Off 2 = test: as above; conditions: 500 ng Cas9 plasmid; for Mod. Freq (indels/total sequences), CLTA Off 2: Table 4
# Experimental: as §1, §2, §3
# CLTA Off 3 = test: as above; conditions: 500 ng Cas9 plasmid; for Mod. Freq (indels/total sequences), CLTA Off 3: Table 4
# Experimental: as §1, §2, §3
# CLTA On = test: as above; conditions: 500 ng Cas9 plasmid; for Mod. Freq (indels/total sequences), CLTA On: Table 4
# Experimental: as §1, §2, §3
# EMX Off 1 = test: as above; conditions: 500 ng Cas9 plasmid; for Mod. Freq (indels/total sequences), EMX Off 1: Table 4
# Experimental: as §1, §2, §3
# EMX Off 2 = test: as above; conditions: 500 ng Cas9 plasmid; for Mod. Freq (indels/total sequences), EMX Off 2: Table 4
# Experimental: as §1, §2, §3
# EMX Off 3 = test: as above; conditions: 500 ng Cas9 plasmid; for Mod. Freq (indels/total sequences), EMX Off 3: Table 4
# Experimental: as §1, §2, §3
# EMX Off 4 = test: as above; conditions: 500 ng Cas9 plasmid; for Mod. Freq (indels/total sequences), EMX Off 4: Table 4
# Experimental: as §1, §2, §3
# EMX On = test: as above; conditions: 500 ng Cas9 plasmid; for Mod. Freq (indels/total sequences), EMX On: Table 4; for Mod Freq (indels/total sequences), EMX On: +4-HT, Table 6
# Experimental: as §1, §2, §3
# VEGF Off 1 = test: as above; conditions: 500 ng Cas9 plasmid; for Mod. Freq (indels/total sequences), VEGF Off 1: Table 4
# Experimental: as §1, §2, §3
# VEGF Off 2 = test: as above; conditions: 500 ng Cas9 plasmid; for Mod. Freq (indels/total sequences), VEGF Off 2: Table 4
# Experimental: as §1, §2, §3
# VEGF Off 3 = test: as above; conditions: 500 ng Cas9 plasmid; for Mod. Freq (indels/total sequences), VEGF Off 3: Table 4
# Experimental: as §1, §2, §3
# VEGF Off 4 = test: as above; conditions: 500 ng Cas9 plasmid; for Mod. Freq (indels/total sequences), VEGF Off 4: Table 4
# Experimental: as §1, §2, §3
# VEGF On = test: as above; conditions: 500 ng Cas9 plasmid; for Mod. Freq (indels/total sequences), VEGF On: Table 4
# Experimental: as §1, §2, §3
# [1] = tested on: EMX, VEGF, and CLTA genomic loci; test: High-throughput DNA sequencing of genome modifications, summary over on-target and off-target sites
# Experimental: as §1, §2, §3
substance,measurement,setting,value
intein(Cys574)-Cas9: Cas9 with 37R3-2 intein replacing Cys574 (SEQ ID NO: 33),"Mod. Freq (indels/total sequences), CLTA Off 1","CLTA Off 1; +4-HT (1 μM, 12 h)",0.04%
same,"Mod Freq (indels/total sequences), CLTA Off 1","CLTA Off 1; +4-HT, Table 6",0.03%
same,"Mod. Freq (indels/total sequences), CLTA Off 1",CLTA Off 1; −4-HT,0.01%
same,"Mod. Freq (indels/total sequences), CLTA Off 2","CLTA Off 2; +4-HT (1 μM, 12 h)",0.02%
same,"Mod Freq (indels/total sequences), CLTA Off 2","CLTA Off 2; +4-HT, Table 6",0.00%
same,"Mod. Freq (indels/total sequences), CLTA Off 2",CLTA Off 2; −4-HT,0.00%
same,"Mod. Freq (indels/total sequences), CLTA Off 3","CLTA Off 3; +4-HT (1 μM, 12 h)",0.01%
same,"Mod Freq (indels/total sequences), CLTA Off 3","CLTA Off 3; +4-HT, Table 6",0.01%
same,"Mod. Freq (indels/total sequences), CLTA Off 3",CLTA Off 3; −4-HT,0.00%
same,"Mod. Freq (indels/total sequences), CLTA On","CLTA On; +4-HT (1 μM, 12 h)",7.65%
same,"Mod Freq (indels/total sequences), CLTA On","CLTA On; +4-HT, Table 6",6.35%
same,"Mod. Freq (indels/total sequences), CLTA On",CLTA On; −4-HT,1.81%
same,"Mod. Freq (indels/total sequences), EMX Off 1","EMX Off 1; +4-HT (1 μM, 12 h)",0.27%
same,"Mod Freq (indels/total sequences), EMX Off 1","EMX Off 1; +4-HT, Table 6",0.17%
same,"Mod. Freq (indels/total sequences), EMX Off 1",EMX Off 1; −4-HT,0.01%
same,"Mod. Freq (indels/total sequences), EMX Off 2","EMX Off 2; +4-HT (1 μM, 12 h)",0.04%
same,"Mod Freq (indels/total sequences), EMX Off 2","EMX Off 2; +4-HT, Table 6",0.02%
same,"Mod. Freq (indels/total sequences), EMX Off 2",EMX Off 2; −4-HT,0.01%
same,"Mod. Freq (indels/total sequences), EMX Off 3","EMX Off 3; +4-HT (1 μM, 12 h)",0.29%
same,"Mod Freq (indels/total sequences), EMX Off 3","EMX Off 3; +4-HT, Table 6",0.25%
same,"Mod. Freq (indels/total sequences), EMX Off 3",EMX Off 3; −4-HT,0.02%
same,"Mod. Freq (indels/total sequences), EMX Off 4","EMX Off 4; +4-HT (1 μM, 12 h)",1.13%
same,"Mod Freq (indels/total sequences), EMX Off 4","EMX Off 4; +4-HT, Table 6",0.85%
same,"Mod. Freq (indels/total sequences), EMX Off 4",EMX Off 4; −4-HT,0.09%
same,"Mod. Freq (indels/total sequences), EMX On","EMX On; +4-HT (1 μM, 12 h)",9.47%
same,"Mod Freq (indels/total sequences), EMX On",EMX On; listed as intein-Cas9 (C574),6.42%
same,"Mod Freq (indels/total sequences), EMX On",EMX On; listed as intein-Cas9(C574),6.4%
same,"Mod. Freq (indels/total sequences), EMX On",EMX On; −4-HT,0.99%
same,"Mod. Freq (indels/total sequences), VEGF Off 1","VEGF Off 1; +4-HT (1 μM, 12 h)",4.68%
same,"Mod Freq (indels/total sequences), VEGF Off 1","VEGF Off 1; +4-HT, Table 6",3.18%
same,"Mod. Freq (indels/total sequences), VEGF Off 1",VEGF Off 1; −4-HT,0.29%
same,"Mod. Freq (indels/total sequences), VEGF Off 2","VEGF Off 2; +4-HT (1 μM, 12 h)",0.77%
same,"Mod Freq (indels/total sequences), VEGF Off 2","VEGF Off 2; +4-HT, Table 6",0.38%
same,"Mod. Freq (indels/total sequences), VEGF Off 2",VEGF Off 2; −4-HT,0.05%
same,"Mod. Freq (indels/total sequences), VEGF Off 3","VEGF Off 3; +4-HT (1 μM, 12 h)",0.19%
same,"Mod Freq (indels/total sequences), VEGF Off 3","VEGF Off 3; +4-HT, Table 6",0.07%
same,"Mod. Freq (indels/total sequences), VEGF Off 3",VEGF Off 3; −4-HT,0.01%
same,"Mod. Freq (indels/total sequences), VEGF Off 4","VEGF Off 4; +4-HT (1 μM, 12 h)",1.40%
same,"Mod Freq (indels/total sequences), VEGF Off 4","VEGF Off 4; +4-HT, Table 6",0.91%
same,"Mod. Freq (indels/total sequences), VEGF Off 4",VEGF Off 4; −4-HT,0.07%
same,"Mod. Freq (indels/total sequences), VEGF On","VEGF On; +4-HT (1 μM, 12 h)",3.03%
same,"Mod Freq (indels/total sequences), VEGF On","VEGF On; +4-HT, Table 6",2.31%
same,"Mod. Freq (indels/total sequences), VEGF On",VEGF On; −4-HT,0.85%
same,"Off-target modification frequency, average fold lower than wild-type Cas9 (80 ng)","[1]; EMX locus, all four off-target sites, +4-HT, similar on-target cleavage",4 fold
same,Activity compared to wild-type Cas9,[1]; absence of 4-HT,much less active
same,Activity compared to wild-type Cas9,[1]; presence of 4-HT,slightly less active than wild-type Cas9
